Measured values as given in patent US20050261174A1, “Insecticidal activity of a cyclic peptide” (priority 2004, published 2005).
“And” between values parts separate entries of the source, which are not always exact repeats. Identical values can stand only once. “Also recorded” adds a separate entry of the source.

What was measured:
Type in all cases: in vivo
[1] = test system: beet armyworm (Spodoptera exigua); assay: Beet armyworm topical test
Procedure: Insecticidal Test for Beet Armyworm (Spodoptera exigua) in Topical Assays.
To prepare topical solutions, 0.5 mg of test compound was dissolved into 0.5 ML of a 90:10 acetone:water solvent. A volume of 1 or 2 μl of the test solutions was topically applied to each of early fourth-instar beet armyworm larvae. Six larvae (6 replications) were used for each treatment. This application rate was equivalent to 1 or 2 μg per larva. Treated larvae were individually placed in wells of 6-well plastic plates and fed an artificial diet. Observations were made at one, two and three days after treatment.

[2] = test system: cotton aphid (Aphis gossypii); assay: Insecticidal test for cotton aphid, foliar spray on infested squash cotyledons; conditions: for % control: 3 days, population reduction versus untreated
Procedure: To prepare spray solutions, 0.5 mg of test compound was dissolved into 0.5 mL of a 90:10 acetone: water solvent. This 0.5 mL of chemical solution was added to 4.5 mL of water containing 0.025% Tween 20 surfactant to produce a 100 ppm spray solution. Lower concentrations were made by diluting the 100 ppm solution with water containing 0.025% Tween 20.
Squash cotyledons with a single cotyledon leaf were infested with cotton aphid (wingless adult and nymph) 16-20 hours prior to application of spray solution. The solution was sprayed with a hand-held Devilbiss sprayer on both sides of each infested squash cotyledon until runoff. Reference plants (solvent check) were sprayed with 0.025% Tween 20 containing 9% acetone. The plants were allowed to air dry and held for 3 days in a controlled room at 25° C. and 40% RH after which time the test was graded. Grading was by actual count using a dissecting microscope and comparison of test counts to the untreated check. Results are given in Table 2 as percent control based on population reduction versus the untreated.

[3] = test system: green peach aphid (Myzus persicae); assay: Insecticidal test for green peach aphid, foliar spray on infested cabbage seedlings; conditions: for No. of live aphid, average / No. of live aphid, plant 1 / No. of live aphid, plant 2 / No. of live aphid, plant 3 / No. of live aphid, plant 4: graded after three days; for % control: three days, population reduction versus untreated
Procedure: Insecticidal Test for Green Peach Aphid (Myzus persicae).
Cabbage seedlings grown in 3-inch pots, with 2-3 small (3-5 cm) true leaves, were used as test substrate. The seedlings were infested with green peach aphids (wingless adult and nymph) 2-3 days prior to chemical application. Four seedlings were used for each treatment. To prepare spray solutions, 0.5 mg of test compound was dissolved into 0.5 mL of a 90:10 acetone:water solvent. This 0.5 mL of chemical solution was added to 4.5 mL of water containing 0.025% Tween 20 surfactant to produce a 100 ppm spray solution. Lower concentrations were made by diluting the 100 ppm solution with water containing 0.025% Tween 20.
A hand-held Devilbiss sprayer was used for spraying a solution to both sides of cabbage leaves until runoff. Reference plants (solvent check) were sprayed with 0.025% Tween 20 containing 9% acetone. Treated plants were held in a holding room for three days at approximately 25° C. and 40% RH prior to grading. Evaluation was conducted by counting the number of live aphids per plant under a microscope. Results are given in Table 3 as percent control based on population reduction versus the untreated.

[4] = test system: cabbage looper (Trichoplusia ni); assay: Cabbage looper dietary test; conditions: for Symptom, 1 day / Symptom, 3 day: early third-instar larvae
Procedure: (§1) Insecticidal Test for Tobacco Budworm (Heliothis virescens), Beet Armyworm (Spodoptera exigua) and Cabbage Looper (Trichoplusia ni) in Dietary Assays.
(§2) Dietary assays were conducted in 128-well plastic trays. To prepare a 1000 ppm stock solution, 0.5 mg of test compound was dissolved into 0.5 mL of a 90:10 acetone:water solvent. The test solutions of 125 ppm and lower concentrations were made by sequentially diluting the stock solution with a 90:10 acetone: water solvent. A volume of 50 μl of the test solutions was pipetted upon the surface of 1 mL of lepidopteran diet (Southland Multi-Species Lepidopteran Diet) in each well of 128-well plastic trays. The highest application rate using the 125 ppm solution was equivalent to 3.1 μg/cm^2. For beet armyworm and cabbage looper, four wells (4 replications) were used for each treatment on each insect species. For tobacco budworm, eight wells (8 replications) were used for each treatment. A second-instar tobacco budworm, two second-instar beet armyworm or two early third-instar cabbage looper larvae were placed upon the treated diet in each well once the solvent had been air-dried. Trays containing the treated diet and larvae were covered with self-adhesive transparent sheets and held in a growth chamber at 25° C., 50-55% RH, and 16 h light: 8 h dark Observation were conducted 1 and 3 days after treatment and infestation.

[5] = test system: tobacco budworm (Heliothis virescens); assay: Tobacco budworm dietary test; conditions: for Symptom, 1 day / Symptom, 3 day: second-instar larvae
Procedure: as §1, §2

[6] = test system: beet armyworm (Spodoptera exigua); assay: Beet armyworm dietary test; conditions: for Symptom, 1 day / Symptom, 3 day: second-instar larvae
Procedure: as §1, §2

[7] = 4 PPM spray, graded after 3 days
[8] = 20 PPM spray, graded after 3 days
[9] = 100 PPM spray, graded after 3 days
[10] = 1.95 PPM (0.049 ug/cm2) on diet

## C/C=C1\NC(=O)[C@H]2CSSCC/C=C/[C@H](CC(=O)N[C@H](C(C)C)C(=O)N2)OC(=O)[C@H](C(C)C)NC1=O [compound of formula (I), FR901228]
[1]; 1 ug/larva topical, 1 day
  % Mortality, 1 day: 0%
[1]; 1 ug/larva topical
  % Mortality, 2 day: 17%
[1]; 1 ug/larva topical, 3 day
  % Mortality, 3 day: 67%
[1]; 2 ug/larva topical, 1 day
  % Mortality, 1 day: 0%
[1]; 2 ug/larva topical
  % Mortality, 2 day: 85%
[1]; 2 ug/larva topical, 3 day
  % Mortality, 3 day: 100%

## C/C=C1\NC(=O)C2CSSCC/C=C/C(CC(=O)NC(C(C)C)C(=O)N2)OC(=O)C(C(C)C)NC1=O (centres unmarked) [compound of formula (I), FR901228]
[2]; 4 PPM spray
  % control: 87%
[2]; [7]
  No. of live aphid, average: 27
  No. of live aphid, plant 1: 27
  No. of live aphid, plant 2: 40
  No. of live aphid, plant 3: 64
  No. of live aphid, plant 4: 83
[2]; 20 PPM spray
  % control: 95.2%
[2]; [8]
  No. of live aphid, average: 10
  No. of live aphid, plant 1: 16
  No. of live aphid, plant 2: 4
[2]; 100 PPM spray
  % control: 100%
[2]; [9]
  No. of live aphid, average: 0
  No. of live aphid, plant 1: 0
  No. of live aphid, plant 2: 0
[1]; 1 ug/larva topical, early fourth-instar larvae, 1 day
  Symptom, 1 day: 2 dying w/duiresis, and 2 unable to right, and 2 small, 1 OK
[1]; 2 ug/larva topical, early fourth-instar larvae, 3 day
  Symptom, 3 day: all dead; also recorded: w/duiresis
[3]; 20 PPM spray
  No. of live aphid, average: 55
  No. of live aphid, plant 1: 47
  No. of live aphid, plant 2: 53
  No. of live aphid, plant 3: 87
  No. of live aphid, plant 4: 32
  % control: 35.8%
[3]; 100 PPM spray
  No. of live aphid, average: 24
  No. of live aphid, plant 1: 8
  No. of live aphid, plant 2: 31
  No. of live aphid, plant 3: 30
  No. of live aphid, plant 4: 26
  % control: 72.1%
[4]; [10]
  % Dead, 1 day: 0%
  % Dead, 3 day: 0%
  Symptom, 1 day: none
  Symptom, 3 day: none
[4]; 7.8 PPM (0.195 ug/cm2) on diet
  % Dead, 1 day: 0%
  % Dead, 3 day: 0%
  Symptom, 1 day: none
  Symptom, 3 day: 60% size of UTC
[4]; 31.3 PPM (0.78 ug/cm2) on diet
  % Dead, 1 day: 0%
  % Dead, 3 day: 0%
  Symptom, 1 day: none
  Symptom, 3 day: 40% size of UTC
[4]; 125 PPM (3.1 ug/cm2) on diet
  % Dead, 1 day: 25%
  % Dead, 3 day: 50%
[5]; 1 PPM (0.025 ug/cm2) on diet
  % Dead, 1 day: 0%
  % Dead, 3 day: 0%
  Symptom, 1 day: none
[5]; 5 PPM (0.13 ug/cm2) on diet
  % Dead, 1 day: 0%
  % Dead, 3 day: 0%
  Symptom, 1 day: 80% size of UTC
  Symptom, 3 day: 60% size of UTC
[5]; 25 PPM (0.63 ug/cm2) on diet
  % Dead, 1 day: 0%
  % Dead, 3 day: 0%
  Symptom, 1 day: 60% size of UTC
  Symptom, 3 day: 40% size of UTC
[5]; 125 PPM (3.1 ug/cm2) on diet
  % Dead, 1 day: 0%
  % Dead, 3 day: 0%
[6]; [10]
  % Dead, 1 day: 0%
  % Dead, 3 day: 0%
  Symptom, 1 day: 90% size of UTC
  Symptom, 3 day: 30% size of UTC
[6]; 7.8 PPM (0.195 ug/cm2) on diet
  % Dead, 1 day: 0%
  % Dead, 3 day: 0%
  Symptom, 1 day: 70% size of UTC
  Symptom, 3 day: 15% size of UTC
[6]; 31.3 PPM (0.78 ug/cm2) on diet
  % Dead, 1 day: 0%
  % Dead, 3 day: 0%
  Symptom, 1 day: 50% size of UTC
  Symptom, 3 day: 10% size of UTC
[6]; 125 PPM (3.1 ug/cm2) on diet
  % Dead, 1 day: 0%
  % Dead, 3 day: 100%
  Symptom, 1 day: 30% size of UTC
  Symptom, 3 day: all dead
